In patent publication US12419861B2, “Method for preventing and/or treating chronic traumatic encephalopathy-i” (EUSTRALIS PHARMACEUTICALS LIMITED (trading as Pressura …, priority 2013, dated 2025):

Tested on: tau phosphorylation
Test: Tau phosphorylation after concussive injury in the rat (rodent model of concussion, FIG. 3)
Assay type: in vivo
Settings: NK1 receptor antagonist administered at 30 min after induction of injury, assessed at 3 day time point, compared with injured untreated animals
From the text: Note that concussive injury in the rat causes extensive tau phosphorylation (C,D) by 3 days after the concussive event compared to non-injured animals (A,B). […] Concussion results in perivascular substance P release Having established that hyperphosphorylated tau accumulates perivascularly following concussive injury, we used an animal model of concussion to investigate whether concussion causes perivascular release of substance P. We developed a rodent model of concussion to replicate the concussive event (Donkin et al., 2004, 7th International Neurotrauma Symposium, pp 75-78, Medimond Publishers, Bologna, Italy) and subsequently determined whether substance P was released after such an event. There was a clear increase in brain perivascular substance P immunoreactivity after the concussive event (FIG. 2). […] Administration of a NK1 receptor antagonist prevents tau phosphorylation Having shown that mechanical injury causes release of substance P after concussive injury, we then investigated whether a substance P NK1 receptor antagonist reduces tau hyperphosphorlation after concussive injury. […] Note that concussive injury in the rat causes extensive tau phosphorylation (C,D) by 3 days after the concussive event compared to non-injured animals (A,B). […] Thus, administration of an NK1 receptor antagonist prevents tau hyperphosphorylation and thus prevents the development of CTE.

In the case of `CC(=O)N[C@@H](Cc1c[nH]c2ccccc12)C(=O)O` [n-acetyl-L-tryptophan, N-acetyl-L-tryptophan], the “effect on tau phosphorylation after concussive injury” value is reported as “almost complete inhibition of tau phosphorylation”.
